Results on one compound are retold here after article PMC7336998, “Discovery of secondary sulphonamides as IDO1 inhibitors with potent antitumour effects in vivo” (Journal of Enzyme Inhibition and Medicinal Chemistry, 2020).

SMILES strings stand for the structures. Entries after “also recorded” stand apart in the source; their conditions may differ.

Broadly, the IC50 is the concentration needed to halve the response being measured. The low end stands for greater potency, the high end for weaker potency. The inhibition is the change of the read-out against control, counted positive when it falls.

For data set [1], the target named is T1, IDO1 protein in HeLa cells (Homo sapiens, UniProt P14902).
T1 construct: a human cervical cancer cell line HeLa that endogenously expresses IDO1 upon IFN-γ treatment; endogenous in cells; host or cells: HeLa cells treated with human IFN-γ
T1 sequence (P14902 whole entry): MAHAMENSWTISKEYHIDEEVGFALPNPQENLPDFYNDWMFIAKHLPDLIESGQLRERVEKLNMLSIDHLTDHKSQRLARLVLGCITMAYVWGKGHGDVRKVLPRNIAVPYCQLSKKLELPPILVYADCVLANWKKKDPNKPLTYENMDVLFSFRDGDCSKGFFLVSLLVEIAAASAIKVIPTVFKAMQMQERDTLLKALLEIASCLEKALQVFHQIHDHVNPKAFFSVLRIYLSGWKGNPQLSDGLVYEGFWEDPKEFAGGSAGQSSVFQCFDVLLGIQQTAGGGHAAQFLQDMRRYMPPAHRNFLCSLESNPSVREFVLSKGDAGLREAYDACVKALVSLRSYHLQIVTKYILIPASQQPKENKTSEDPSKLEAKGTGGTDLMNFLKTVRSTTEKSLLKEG
The experiment in a line: Cellular thermal shift assay (CETSA). The class given is binding. The settings on record: IFN-γ 100 ng/mL 24 h, compound 2 h, 43-70 °C, Western blot. As for the experimental part: HeLa cells were seeded in 6-well culture plates at a density of 2 × 10^5 per well. On the next day, human IFN-γ (100 ng/mL) were added and incubated for 24 h, and then the cells were treated with 5d for 2 h. At the end of incubation, cells collected and subjected to CETSA assay. Briefly, incubated cells were equally divided into 10 parts, each part was heated for 3 min under different temperature (43, 46, 49, 52, 55, 58, 61, 64, 67, and 70 °C), and then the heated cells were kept at −80 °C for 12 h, then at room temperature for 5 min, and the process repeated one more time. After that, cell lysates were extracted by centrifugation at 20,000 × g, 20 min. Levels of IDO1 protein were assessed by Western blot analysis.
The cellular thermal shift assay (CETSA) is usually used to identify compounds and their potential targets. CESTA can detect the target engagement of drugs in a cellular context based on the biophysical principle of ligand-induced thermal stabilisation of target proteins. To this end, we further employed the CETSA assay to detect whether compound 5d could directly bind to the target protein IDO1 in HeLa cells.
Figure 6. Compound 5d could bind to IDO1 protein in HeLa cells. HeLa cells were treated with human IFN-γ (100 ng/mL) for 24 h, and then treated with 5d for 2 h. […] The levels of IDO1 protein were assessed by Western blot analysis.
(In western blotting, separated proteins are transferred to a membrane and probed.)

Another data set relates to CT26 colon carcinoma. The experiment in a line: CT26 colon carcinoma xenograft in immunocompetent BALB/c mice (tumour growth, H&E, IHC, TUNEL, spleen FACS). The class given is in vivo. As for the experimental part:
BALB/c mice (6–8 weeks old, 18–22 g) were supplied by Model Animal Research Centre of Nanjing University (Nanjing, China). Mice were maintained under standard specific-pathogen-free (SPF) conditions (21 ± 2 °C and 12-h light: dark cycle). Animal welfare and experimental procedures were carried out strictly in accordance with the Guide for the Care and Use of Laboratory Animals (The Ministry of Science and Technology of China, 2006) and the related ethical regulations of our university. All efforts were made to minimise animals’ suffering and to reduce the number of animals used. Mouse colon cancer cells (CT26) and melanoma cells (B16F1) were cultured and collected by centrifugation (1000 rpm, 5 min) and washed twice with ice-cold PBS. Then cells were diluted to 1 × 10^7/ml and 1 × 10^6 CT26/B16F1 cells (in 0.1 ml PBS) were injected subcutaneously into the right flanks of mice. All mice formed tumours three days after injection. Then mice were randomly distributed into five groups (n = 10/8) according to tumour volumes. 5d ([…], 12.5 mg/kg) were administered (i.g) to each group respectively every day. 5-FU (25 mg/kg) and Cis-platinum (1 mg/kg) were administered (i.p) every three days. Tumour length and tumour width were measured with a Vernier calliper every three days. Tumour volumes were measured and calculated using the equation volume = a × b^2/2, where “a” is the maximal […] and “b” is maximal orthogonal width. After the administration were completed, mice were weighed, euthanized, and tumours were removed and the weight were taken.
For immunohistochemistry staining, the sections were deparaffinized, rehydrated, and washed in 1% PBS-Tween 20, and then treated with 2% hydrogen peroxide, blocked with 3% goat serum (Life Technology, 16210–064) and incubated for 2 h at room temperature with specific primary antibodies. Then the slides were incubated with streptavidin-HRP (Shanghai Gene Company, GK500705) for 40 min, then stained with DAB (Shanghai Gene Company, GK500705) substrate and counter-stained with haematoxylin. Images were acquired by microscopy (Olympus IX51).
Given that it was the most prominent inhibitor in vitro, we chose compound 5d for further pharmacodynamic evaluation in vivo. Bowel cancer is the third leading cause of cancer in the world, thus we first evaluated the efficacy of compound 5d on the growth of murine CT26 colon carcinoma xenograft model in immunocompetent BALB/c mice. Fluorouracil (5-FU) is one of the most commonly used drugs to different cancers including bowel cancer, and was used as the positive control. The CT26 tumour-bearing mice were treated with 5d (3.125, 6.25, 12.5 mg/kg, i.g, every day) or 5-FU (25 mg/kg, i.p, […]). Tumour volumes were measured every two days for 14 days.
Figure 7. Compound 5d suppressed colon cancer growth in immunocompetent mice. 1 × 10^6 CT26 cells were transplanted subcutaneously into the armpit of the BALB/c mice. Three days after transplantation, mice were randomly allocated to vehicle control or treatment groups (n = 10). Drugs were administered on days 1–14. Tumour volume (A) and mice body weight (B) were recorded. After sacrifice, solid tumours were separated and weighed (C, D). Data represent mean ± SEM, n = 10, *p < 0.05, **p < 0.01 vs vehicle.
In order to further observe morphological changes in tumour tissues after administration of compound 5d, the tumour tissue sections obtained from the BALB/c mice bearing CT26 colorectal tumours were stained with haematoxylin-eosin (H&E) to highlight different tissue structures, such as the nucleus and cytoplasm.
Then, to understand the mechanism of tumour cell death, we detected the level of proliferating cell nuclear antigen (PCNA) protein and tumour cell apoptosis by immunohistochemistry (IHC) and terminal deoxynucleotidyl transferase dUTP nick end labelling (TUNEL) experiments, respectively. […]

The target of a further data set is T2, IDO1 (Homo sapiens, UniProt P14902).
T2 construct: a human cervical cancer cell line HeLa that endogenously expresses IDO1 upon IFN-γ treatment; endogenous in cells; host or cells: HeLa cells treated with human IFN-γ
T2 sequence (P14902 whole entry): as above
The experiment in a line: HeLa cell-based IDO1/kynurenine assay. As for the experimental part:
The main bioassays performed in the study, including HeLa cell-based IDO1/kynurenine assay, Western blot analysis, T cell proliferation and Treg cell differentiation experiments, were carried out as described previously.
It is well known that IDO1 is broadly expressed in human cancers and is induced by pro-inflammatory cytokines, such as interferon gamma (IFN-γ) and tumour necrosis factor alpha (TNF-α)[41]. Here we utilised a human cervical cancer cell line HeLa that endogenously expresses IDO1 upon IFN-γ treatment to evaluate the IDO1 inhibitory activity of the synthesised compounds by measuring kynurenine secreted into the media. […] Thus, we also employed this cellular assay to detect false positive IDO1 inhibitors and cytotoxic compounds by measuring HeLa cell viability. Clinical candidate navoximod was used as an assay control.

The mark [2] stands for this setting: BALB/c mice, 12.5 mg/kg i.g, every day, 14 days.
Where [3] appears, read: CT26 tumour tissue, BALB/c mice, 3.125-12.5 mg/kg i.g.

With `C=CC(=O)Nc1ccc(S(=O)(=O)NCc2cccc(Cl)c2)cc1` [5d, N-(4-(N-(3-Chlorobenzyl)sulfamoyl)phenyl)acrylamide], the “thermal stability of IDO1 protein” value in data set [1] is “improve the thermal stability of IDO1 protein; also recorded: still maintained the protein stability at 55 °C”. Moreover, the “body weight of the mice” value with CT26 colon carcinoma (14-day treatment, vs vehicle group) is reported as “no significant change in body weight”. Moreover, in the data set on CT26 colon carcinoma (setting [2]), the “reduction of average tumour weight” value turned out to be 37.5% and the “reduction of tumour volume” value was determined as 35.9%. Besides, the tumour growth entry in the data set on CT26 colon carcinoma (BALB/c mice, 3.125, 6.25, 12.5 mg/kg, i.g, every day, 14 days, vs vehicle) was “significantly suppressed the growth of tumour in a dose-dependent manner”. In the data set with CT26 colon carcinoma (setting [3]), the “number of tumour cells (H&E staining)” value is “decreased the number of tumour cells” and the “tumour cell apoptosis (TUNEL)” value is reported as “significantly induced the tumour cell apoptosis in a dose-dependent manner”. In addition, in the data set on CT26 colon carcinoma (CT26 tumour tissue, BALB/c mice, 3.125-12.5 mg/kg i.g, vs vehicle), the “expression of IFN-γ (IHC)” value is given as “increased the expression of IFN-γ in a dose-dependent manner”. The “granzyme B levels (IHC)” value in the data set on CT26 colon carcinoma (CT26 tumour tissue, BALB/c mice, all doses) is reported as “elevated granzyme B levels”. For the same compound, the “FoxP3+ Treg cells in spleen (FACS)” value in the data set on CT26 colon carcinoma (CT26 tumour-bearing mice, 3.125 mg/kg) is 4.79%. Besides, the “FoxP3+ Treg cells in spleen (FACS)” value with CT26 colon carcinoma (CT26 tumour-bearing mice, 6.25 mg/kg) turned out to be 4.13%. In addition, the “FoxP3+ Treg cells in spleen (FACS)” value in the data set with CT26 colon carcinoma (CT26 tumour-bearing mice, 12.5 mg/kg) was 2.62%. The “number of FoxP3+ Treg cells in spleen (in words)” value with CT26 colon carcinoma (CT26 tumour-bearing mice, 3.125-12.5 mg/kg) is “decreased the number of FoxP3^+ Treg cells in a dose-dependent manner”. Moreover, the “reduction of FoxP3+ Treg cells compared with the vehicle group” value in the data set on CT26 colon carcinoma (spleen, high dose group) was determined as 2.4 fold. The same compound came in with an IC50 on IDO1 (HeLa cells, IFN-γ induced IDO1, kynurenine readout) of 6.26 µM. The compound also gave an inhibition at 30 µM on IDO1 (percentage inhibition at 30 μM, IFN-γ-treated HeLa cells, kynurenine in media) of 91.1%.
